ChEMBL document CHEMBL2413072, “Synthesis and in vitro anticancer studies of novel C-2 arylidene congeners of lantadenes” (2013)

How the values were obtained:
Type in all cases: functional
KM12 = assay: Growth inhibition of human KM12 cells by sulforhodamine B assay
HCT-116 = assay: Growth inhibition of human HCT116 cells by sulforhodamine B assay
NCI-H322M = assay: Growth inhibition of human NCI-H322M cells by sulforhodamine B assay
K562 [1] = assay: Growth inhibition of human K562 cells by sulforhodamine B assay
UACC-62 = assay: Growth inhibition of human UACC62 cells assessed as cell growth at 10^-8 M by sulforhodamine B assay; settings: read-out: Activity
Malme-3M = assay: Growth inhibition of human MALME-3M cells assessed as cell growth at 10^-8 M by sulforhodamine B assay; settings: read-out: Activity
SNB-75 [2] = assay: Growth inhibition of human SNB75 cells assessed as cell growth at 10^-8 M by sulforhodamine B assay; settings: read-out: Activity
[3] = Growth inhibition of human HCC2998 cells assessed as cell growth at 10^-8 M by sulforhodamine B assay; settings: HCC 2998, read-out: Activity
SR [4] = assay: Growth inhibition of human SR cells assessed as cell growth at 10^-8 M by sulforhodamine B assay; settings: read-out: Activity
MOLT-4 = assay: Growth inhibition of human MOLT4 cells assessed as cell growth at 10^-8 M by sulforhodamine B assay; settings: read-out: Activity
T47D = assay: Growth inhibition of human T47D cells by sulforhodamine B assay
MCF7 = assay: Growth inhibition of human MCF7 cells by sulforhodamine B assay
OVCAR-8 [5] = assay: Growth inhibition of human OVCAR8 cells by sulforhodamine B assay
UACC-257 = assay: Growth inhibition of human UACC257 cells by sulforhodamine B assay
SNB-75 [6] = assay: Growth inhibition of human SNB75 cells by sulforhodamine B assay
BT-549 = assay: Growth inhibition of human BT549 cells assessed as cell growth at 10^-4 M by sulforhodamine B assay; settings: read-out: Activity
[7] = Growth inhibition of human Hs 578T cells assessed as cell growth at 10^-4 M by sulforhodamine B assay; settings: read-out: Activity
CAKI-1 = assay: Growth inhibition of human CAKI-1 cells assessed as cell growth at 10^-4 M by sulforhodamine B assay; settings: read-out: Activity
OVCAR-8 [8] = assay: Growth inhibition of human OVCAR8 cells assessed as cell growth at 10^-4 M by sulforhodamine B assay; settings: read-out: Activity
MDA-MB-435 = assay: Growth inhibition of human MDA-MB-435 cells assessed as cell growth at 10^-4 M by sulforhodamine B assay; settings: read-out: Activity
SF-539 [9] = assay: Growth inhibition of human SF539 cells assessed as cell growth at 10^-4 M by sulforhodamine B assay; settings: read-out: Activity
SR [10] = assay: Growth inhibition of human SR cells assessed as cell growth at 10^-4 M by sulforhodamine B assay; settings: read-out: Activity
K562 [11] = assay: Growth inhibition of human K562 cells assessed as cell growth at 10^-4 M by sulforhodamine B assay; settings: read-out: Activity
DU-145 [12] = assay: Growth inhibition of human DU145 cells assessed as cell growth at 10^-6 M by sulforhodamine B assay; settings: read-out: Activity
UO-31 [13] = assay: Growth inhibition of human UO31 cells assessed as cell growth at 10^-6 M by sulforhodamine B assay; settings: read-out: Activity
RXF 393 = assay: Growth inhibition of human RXF393 cells assessed as cell growth at 10^-6 M by sulforhodamine B assay; settings: read-out: Activity
SK-MEL-2 = assay: Growth inhibition of human SK-MEL-2 cells assessed as cell growth at 10^-6 M by sulforhodamine B assay; settings: read-out: Activity
M14 = assay: Growth inhibition of human M14 cells assessed as cell growth at 10^-6 M by sulforhodamine B assay; settings: read-out: Activity
NCI-H23 = assay: Growth inhibition of human NCI-H23 cells assessed as cell growth at 10^-6 M by sulforhodamine B assay; settings: read-out: Activity
DU-145 [14] = assay: Growth inhibition of human DU145 cells assessed as cell growth at 10^-7 M by sulforhodamine B assay; settings: read-out: Activity
A498 = assay: Growth inhibition of human A498 cells assessed as cell growth at 10^-7 M by sulforhodamine B assay; settings: read-out: Activity
OVCAR-8 [15] = assay: Growth inhibition of human OVCAR8 cells assessed as cell growth at 10^-7 M by sulforhodamine B assay; settings: read-out: Activity
OVCAR-5 = assay: Growth inhibition of human OVCAR5 cells assessed as cell growth at 10^-7 M by sulforhodamine B assay; settings: read-out: Activity
LOX IMVI = assay: Growth inhibition of human LOXIMVI cells assessed as cell growth at 10^-7 M by sulforhodamine B assay; settings: read-out: Activity
SF-539 [16] = assay: Growth inhibition of human SF539 cells assessed as cell growth at 10^-7 M by sulforhodamine B assay; settings: read-out: Activity
SF-268 = assay: Growth inhibition of human SF268 cells assessed as cell growth at 10^-7 M by sulforhodamine B assay; settings: read-out: Activity
MDA-MB-231 = assay: Growth inhibition of human MDA-MB-231 cells assessed as cell growth at 10^-8 M by sulforhodamine B assay; settings: read-out: Activity
UO-31 [17] = assay: Growth inhibition of human UO31 cells assessed as cell growth at 10^-8 M by sulforhodamine B assay; settings: read-out: Activity
TK-10 = assay: Growth inhibition of human TK10 cells assessed as cell growth at 10^-8 M by sulforhodamine B assay; settings: read-out: Activity
OVCAR-4 = assay: Growth inhibition of human OVCAR4 cells assessed as cell growth at 10^-8 M by sulforhodamine B assay; settings: read-out: Activity
[18] = read-out: LC50 (the source's name)
[19] = read-out: pLC50 (the source's name) (converted)

CC(C)=CC(=O)O[C@@H]1CC(C)(C)C[C@H]2C3=CC[C@@H]4[C@@]5(C)CC[C@H](O)C(C)(C)[C@@H]5CC[C@@]4(C)[C@]3(C)CC[C@@]12C(=O)O [Reduced Lantadene B]
GI50 (KM12; read-out: GI50): 862 nM | LC50 (50% net cell kill) (KM12; read-out: LC50): > 100 µM | TGI (KM12; read-out: TGI): 19.6 µM | GI50 (KM12; read-out: pGI50 (converted)): 871 nM | LC50 (50% net cell kill) (KM12; read-out: pLC50 (converted)): > 100 µM | TGI (KM12; read-out: pTGI (converted)): 19.5 µM | GI50 (HCT-116; read-out: GI50): 2670 nM | LC50 (HCT-116; read-out: LC50): 50.2 µM | TGI (HCT-116; read-out: TGI): 15.9 µM | GI50 (HCT-116; read-out: pGI50 (converted)): 2690 nM | LC50 (HCT-116; read-out: pLC50 (converted)): 50.1 µM | TGI (HCT-116; read-out: pTGI (converted)): 15.8 µM | GI50 (NCI-H322M; read-out: GI50): 3.62 µM | LC50 (50% lethal concentration) (NCI-H322M; read-out: LC50): 58 µM | TGI (NCI-H322M; read-out: TGI): 15 µM | GI50 (NCI-H322M; read-out: pGI50 (converted)): 3.63 µM | LC50 (50% lethal concentration) (NCI-H322M; read-out: pLC50 (converted)): 57.5 µM | TGI (NCI-H322M; read-out: pTGI (converted)): 15.1 µM | GI50 (K562 [1]; read-out: GI50): 3.38 µM | LC50 (K562 [1]; read-out: LC50): > 100 µM | TGI (K562 [1]; read-out: TGI): 93.1 µM | GI50 (K562 [1]; read-out: pGI50 (converted)): 3.39 µM | LC50 (K562 [1]; read-out: pLC50 (converted)): > 100 µM | TGI (K562 [1]; read-out: pTGI (converted)): 93.3 µM | growth at 0.01 µM (UACC-62): 94% | growth at 0.01 µM (Malme-3M): 94% | growth at 0.01 µM (SNB-75 [2]): 85% | growth at 0.01 µM [3]: 99% | growth at 0.01 µM (SR [4]): 107% | growth at 0.01 µM (MOLT-4): 106% | GI50 (T47D; read-out: GI50): 16.7 µM | CC50 (T47D; [18]): > 100 µM | TGI (T47D; read-out: TGI): 63.4 µM | GI50 (T47D; read-out: pGI50 (converted)): 16.6 µM | CC50 (T47D; [19]): > 100 µM | TGI (T47D; read-out: pTGI (converted)): 63.1 µM | GI50 (MCF7; read-out: GI50): 6.18 µM | CC50 (MCF7; [18]): > 100 µM | TGI (MCF7; read-out: TGI): 30.3 µM | GI50 (MCF7; read-out: pGI50 (converted)): 6.17 µM | CC50 (MCF7; [19]): > 100 µM | TGI (MCF7; read-out: pTGI (converted)): 30.2 µM | GI50 (OVCAR-8 [5]; read-out: GI50): 4.68 µM | CC50 (OVCAR-8 [5]; [18]): > 100 µM | TGI (OVCAR-8 [5]; read-out: TGI): 28.9 µM | GI50 (OVCAR-8 [5]; read-out: pGI50 (converted)): 4.68 µM | CC50 (OVCAR-8 [5]; [19]): > 100 µM | TGI (OVCAR-8 [5]; read-out: pTGI (converted)): 28.8 µM | GI50 (UACC-257; read-out: GI50): 14.5 µM | CC50 (UACC-257; [18]): > 100 µM | TGI (UACC-257; read-out: TGI): 45.6 µM | GI50 (UACC-257; read-out: pGI50 (converted)): 14.5 µM | CC50 (UACC-257; [19]): > 100 µM | TGI (UACC-257; read-out: pTGI (converted)): 45.7 µM | GI50 (SNB-75 [6]; read-out: GI50): 12.7 µM | CC50 (SNB-75 [6]; [18]): > 100 µM | TGI (SNB-75 [6]; read-out: TGI): 41.2 µM | GI50 (SNB-75 [6]; read-out: pGI50 (converted)): 12.9 µM | CC50 (SNB-75 [6]; [19]): > 100 µM | TGI (SNB-75 [6]; read-out: pTGI (converted)): 40.7 µM | growth at 100 µM (BT-549): -65% | growth at 100 µM [7]: -45% | growth at 100 µM (CAKI-1): -9% | growth at 100 µM (OVCAR-8 [8]): -40% | growth at 100 µM (MDA-MB-435): -26% | growth at 100 µM (SF-539 [9]): -38% | growth at 100 µM (SR [10]): -26% | growth at 100 µM (K562 [11]): -1% | growth at 1 µM (DU-145 [12]): 94% | growth at 1 µM (UO-31 [13]): 89% | growth at 1 µM (RXF 393): 93% | growth at 1 µM (SK-MEL-2): 107% | growth at 1 µM (M14): 89% | growth at 1 µM (NCI-H23): 91% | growth at 0.1 µM (DU-145 [14]): 100% | growth at 0.1 µM (A498): 85% | growth at 0.1 µM (OVCAR-8 [15]): 101% | growth at 0.1 µM (OVCAR-5): 111% | growth at 0.1 µM (LOX IMVI): 93% | growth at 0.1 µM (SF-539 [16]): 98% | growth at 0.1 µM (SF-268): 93% | growth at 0.01 µM (MDA-MB-231): 111% | growth at 0.01 µM (UO-31 [17]): 89% | growth at 0.01 µM (TK-10): 92% | growth at 0.01 µM (OVCAR-4): 100%
